From ChEMBL document CHEMBL3132814, “Synthesis and biological evaluation of tetrahydropyridinepyrazoles (PFPs) as inhibitors of STAT3 phosphorylation” (2014)
The source made the active and inactive calls. No cut-off for these calls is given here.

Experiments:
[1] = system: HepG2; assay: Antiproliferative activity against human HepG2 cells assessed as inhibition of cell proliferation at 100 uM after 2 hrs by MTT assay; type: functional; conditions: for inhibition at 100 µM: HepG2, 2 h
[2] = system: MCF7; assay: Antiproliferative activity against human MCF7 cells assessed as inhibition of cell proliferation at 100 uM after 2 hrs by MTT assay; type: functional; conditions: MCF7, 2 h
[3] = target: Signal transducer and activator of transcription 3 (Homo sapiens) (UniProt P40763); assay: Inhibition of STAT3-DNA binding in human HepG2 cells at 10 uM after 6 hrs by ELISA based DNA binding assay; type: cell-based
Sequence of Signal transducer and activator of transcription 3 (Homo sapiens) (P40763 whole entry): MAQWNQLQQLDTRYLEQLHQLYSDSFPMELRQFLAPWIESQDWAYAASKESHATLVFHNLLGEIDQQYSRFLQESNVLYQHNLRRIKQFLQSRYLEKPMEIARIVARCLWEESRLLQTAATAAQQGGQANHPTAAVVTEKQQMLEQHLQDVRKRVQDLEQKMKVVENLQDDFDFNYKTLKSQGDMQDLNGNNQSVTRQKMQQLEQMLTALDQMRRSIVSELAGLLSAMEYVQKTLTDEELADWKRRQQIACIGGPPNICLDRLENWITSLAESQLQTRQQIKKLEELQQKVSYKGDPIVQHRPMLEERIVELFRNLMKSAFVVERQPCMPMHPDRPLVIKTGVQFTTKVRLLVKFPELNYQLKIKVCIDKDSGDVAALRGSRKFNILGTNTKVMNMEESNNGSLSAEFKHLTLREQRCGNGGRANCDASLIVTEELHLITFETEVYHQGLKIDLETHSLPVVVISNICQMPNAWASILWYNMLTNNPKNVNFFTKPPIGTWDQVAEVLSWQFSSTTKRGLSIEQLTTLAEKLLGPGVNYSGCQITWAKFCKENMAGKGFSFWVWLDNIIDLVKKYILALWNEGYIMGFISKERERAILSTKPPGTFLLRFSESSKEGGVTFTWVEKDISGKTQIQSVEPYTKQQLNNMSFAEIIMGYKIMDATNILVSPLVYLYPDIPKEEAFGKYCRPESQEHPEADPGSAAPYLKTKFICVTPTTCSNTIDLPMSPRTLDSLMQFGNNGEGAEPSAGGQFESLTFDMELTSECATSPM

[4] = system: Hep 3B2; assay: Antiproliferative activity against human Hep3B cells assessed as inhibition of cell proliferation at 10 to 100 uM by MTT dye uptake assay; type: functional, cell-based; conditions: TDE = time-dependent effect
[5] = system: PLC-PRF-5; assay: Antiproliferative activity against human PLC/PRF/5 cells assessed as inhibition of cell proliferation at 10 to 100 uM by MTT dye uptake assay; type: functional, cell-based; conditions: TDE = time-dependent effect
[6] = system: Huh-7; assay: Antiproliferative activity against human HuH7 cells assessed as inhibition of cell proliferation at 10 to 100 uM by MTT dye uptake assay; type: functional, cell-based; conditions: TDE = time-dependent effect
[7] = system: HepG2; assay: Antiproliferative activity against human HepG2 cells assessed as inhibition of cell proliferation at 10 to 100 uM by MTT dye uptake assay; type: functional, cell-based; conditions: TDE = time-dependent effect
[8] = system: Hep 3B2; assay: Antiproliferative activity against human Hep3B cells assessed as inhibition of cell proliferation after 24 to 72 hrs by MTT dye uptake assay; type: functional, cell-based
[9] = system: PLC-PRF-5; assay: Antiproliferative activity against human PLC/PRF/5 cells assessed as inhibition of cell proliferation after 24 to 72 hrs by MTT dye uptake assay; type: functional, cell-based
[10] = system: Huh-7; assay: Antiproliferative activity against human HuH7 cells assessed as inhibition of cell proliferation after 24 to 72 hrs by MTT dye uptake assay; type: functional, cell-based
[11] = system: HepG2; assay: Antiproliferative activity against human HepG2 cells assessed as inhibition of cell proliferation after 24 to 72 hrs by MTT dye uptake assay; type: functional, cell-based
[12] = system: HCCLM3; assay: Inhibition of human HCCLM3 cells migration at 10 uM for 6 hrs by wound-healing assay; type: functional, cell-based
[13] = system: HCCLM3; assay: Inhibition of human HCCLM3 cells migration at 10 uM for 6 hrs by matrigel invasion assay; type: functional, cell-based
[14] = system: HCCLM3; assay: Inhibition of CXCL12-induced human HCCLM3 cells migration pretreated at 10 uM for 6 hrs by wound-healing assay; type: functional, cell-based
[15] = system: HCCLM3; assay: Inhibition of CXCL12-induced human HCCLM3 cells migration pretreated at 10 uM for 6 hrs by matrigel invasion assay; type: functional, cell-based
[16] = system: PC-3; assay: Antiproliferative activity against human PC3 cells assessed as inhibition of cell proliferation at 10 to 100 uM after 24 to 72 hrs by MTT assay; type: functional, cell-based
[17] = target: Tyrosine-protein kinase JAK2 (Homo sapiens) (UniProt O60674); assay: Inhibition of JAk2 activation in human HepG2 cells assessed as inhibition of phosphorylation at 10 uM by Western blot analysis; type: cell-based; conditions: TDE = time-dependent effect
Sequence of Tyrosine-protein kinase JAK2 (Homo sapiens) (O60674 whole entry): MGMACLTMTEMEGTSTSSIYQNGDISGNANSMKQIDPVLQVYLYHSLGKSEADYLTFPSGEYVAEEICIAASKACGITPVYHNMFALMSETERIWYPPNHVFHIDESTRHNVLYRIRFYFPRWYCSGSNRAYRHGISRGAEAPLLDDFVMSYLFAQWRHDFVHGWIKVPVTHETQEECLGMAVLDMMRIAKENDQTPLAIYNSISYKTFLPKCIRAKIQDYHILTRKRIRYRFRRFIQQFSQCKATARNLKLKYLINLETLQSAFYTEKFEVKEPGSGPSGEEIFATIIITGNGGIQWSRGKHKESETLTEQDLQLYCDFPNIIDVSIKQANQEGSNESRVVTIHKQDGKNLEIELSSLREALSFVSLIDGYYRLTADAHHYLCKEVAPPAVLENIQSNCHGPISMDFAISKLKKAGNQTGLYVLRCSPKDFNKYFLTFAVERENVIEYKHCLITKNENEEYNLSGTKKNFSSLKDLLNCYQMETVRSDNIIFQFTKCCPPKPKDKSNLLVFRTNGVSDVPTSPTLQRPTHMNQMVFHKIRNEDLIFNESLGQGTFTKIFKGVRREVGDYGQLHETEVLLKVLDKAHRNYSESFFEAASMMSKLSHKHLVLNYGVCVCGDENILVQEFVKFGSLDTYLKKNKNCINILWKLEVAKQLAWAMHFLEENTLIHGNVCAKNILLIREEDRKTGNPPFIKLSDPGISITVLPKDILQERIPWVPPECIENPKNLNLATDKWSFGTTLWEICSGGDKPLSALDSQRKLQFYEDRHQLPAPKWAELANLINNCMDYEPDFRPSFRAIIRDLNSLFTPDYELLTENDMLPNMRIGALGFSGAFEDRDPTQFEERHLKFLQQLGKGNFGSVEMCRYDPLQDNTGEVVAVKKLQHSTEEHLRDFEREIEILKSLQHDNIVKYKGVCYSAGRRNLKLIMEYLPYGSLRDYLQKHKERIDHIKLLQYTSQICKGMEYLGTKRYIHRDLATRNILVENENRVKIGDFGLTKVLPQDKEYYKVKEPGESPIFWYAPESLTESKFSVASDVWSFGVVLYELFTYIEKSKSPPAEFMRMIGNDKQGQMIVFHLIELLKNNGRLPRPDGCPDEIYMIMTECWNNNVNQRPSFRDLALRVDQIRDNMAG

[18] = target: Proto-oncogene tyrosine-protein kinase Src (Homo sapiens) (UniProt P12931); assay: Inhibition of Src kinase activation in human HepG2 cells assessed as inhibition of phosphorylation at 10 uM by Western blot analysis; type: cell-based; conditions: TDE = time-dependent effect
Sequence of Proto-oncogene tyrosine-protein kinase Src (Homo sapiens) (P12931 2-536 limits assumed): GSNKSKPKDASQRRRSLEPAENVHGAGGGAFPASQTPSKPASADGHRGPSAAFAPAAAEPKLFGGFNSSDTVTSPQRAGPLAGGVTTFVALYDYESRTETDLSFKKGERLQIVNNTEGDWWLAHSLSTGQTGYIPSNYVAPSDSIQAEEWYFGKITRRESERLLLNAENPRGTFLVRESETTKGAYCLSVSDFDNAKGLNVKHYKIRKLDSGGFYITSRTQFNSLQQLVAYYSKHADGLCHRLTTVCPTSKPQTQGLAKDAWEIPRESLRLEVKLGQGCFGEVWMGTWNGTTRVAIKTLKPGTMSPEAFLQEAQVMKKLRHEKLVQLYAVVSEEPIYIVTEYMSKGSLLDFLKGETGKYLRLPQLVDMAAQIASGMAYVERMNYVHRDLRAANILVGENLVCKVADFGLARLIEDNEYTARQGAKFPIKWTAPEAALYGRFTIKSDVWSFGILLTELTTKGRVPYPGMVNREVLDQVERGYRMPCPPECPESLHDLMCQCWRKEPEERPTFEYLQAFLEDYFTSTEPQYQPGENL

[19] = target: Signal transducer and activator of transcription 3 (Homo sapiens) (UniProt P40763); assay: Inhibition of STAT3 activation in human HepG2 cells assessed as maximal inhibition of phosphorylation at tyrosine 705 at 10 uM at 4 to 6 hrs by Western blot analysis; type: cell-based
[20] = target: Signal transducer and activator of transcription 3 (Homo sapiens) (UniProt P40763); assay: Inhibition of STAT3 activation in human HepG2 cells assessed as inhibition of phosphorylation at tyrosine 705 at 10 uM by Western blot analysis; type: cell-based; conditions: TDE = time-dependent effect
[21] = target: Signal transducer and activator of transcription 3 (Homo sapiens) (UniProt P40763); assay: Inhibition of STAT3-DNA binding in human HepG2 cells after 6 hrs by ELISA based DNA binding assay; type: cell-based

Row | SMILES | inhibition [1] | inhibition at 100 µM [2] | inhibition [4] | inhibition [5] | inhibition [6] | inhibition [7] | inhibition [8] | inhibition [9] | inhibition [10] | inhibition [11] | inhibition at 100 µM [1] | further results
1 | C=CCN1Cc2c(nn(-c3ccc(Cl)cc3Cl)c2NS(=O)(=O)c2ccccc2)C(F)(F)C1c1ccc(OC)cc1 (stereo not given) | inactive | 85.3% |  |  |  |  |  |  |  |  |  | 
2 | C=CCN1Cc2c(nn(-c3ccc(Cl)cc3Cl)c2NS(=O)(=O)c2ccc(F)cc2)C(F)(F)C1c1ccc(OC)cc1 (stereo not given) | inactive | 78.8% |  |  |  |  |  |  |  |  |  | 
3 | C=CCN1Cc2c(nn(-c3ccc(Cl)cc3Cl)c2NC(=S)Nc2ccc(C(F)(F)F)cc2)C(F)(F)C1c1ccc(OC)cc1 (stereo not given) |  | 84.1% | tde | tde | tde | tde | Dose-dependent effect | Dose-dependent effect | Dose-dependent effect | Dose-dependent effect | 85.1% | inhibition [3]: Active
4 | C=CCN1Cc2c(nn(-c3ccc(Cl)cc3Cl)c2NC(=O)Nc2ccccc2)C(F)(F)C1c1ccc(OC)cc1 (stereo not given) |  | 77.4% | tde | tde | tde | tde | Dose-dependent effect | Dose-dependent effect | Dose-dependent effect | Dose-dependent effect | 80% | inhibition [12]: Active; inhibition [13]: Active; inhibition [14]: Active; inhibition [15]: Active; inhibition [16]: inactive; inhibition [17]: tde; inhibition [18]: tde; inhibition [19]: Active; inhibition [20]: tde; inhibition [21]: Dose-dependent effect
